Calls of active or inactive are those of the source.
Key:
[1] = biological target: Induced myeloid leukemia cell differentiation protein Mcl-1 (Homo sapiens, UniProt Q07820); format: functional
Aminopeptidase N = biological target: T1, Aminopeptidase N (Plasmodium falciparum FcB1/Columbia, UniProt O96935); test: P. falciparum M1AAP inhibitors, biochemical, fluorogenic H-Leu-NHMec substrate, 1536-well (AID 1445); parameters: species or system Plasmodium falciparum 3D7, 3D7
T1 sequence (O96935 whole entry): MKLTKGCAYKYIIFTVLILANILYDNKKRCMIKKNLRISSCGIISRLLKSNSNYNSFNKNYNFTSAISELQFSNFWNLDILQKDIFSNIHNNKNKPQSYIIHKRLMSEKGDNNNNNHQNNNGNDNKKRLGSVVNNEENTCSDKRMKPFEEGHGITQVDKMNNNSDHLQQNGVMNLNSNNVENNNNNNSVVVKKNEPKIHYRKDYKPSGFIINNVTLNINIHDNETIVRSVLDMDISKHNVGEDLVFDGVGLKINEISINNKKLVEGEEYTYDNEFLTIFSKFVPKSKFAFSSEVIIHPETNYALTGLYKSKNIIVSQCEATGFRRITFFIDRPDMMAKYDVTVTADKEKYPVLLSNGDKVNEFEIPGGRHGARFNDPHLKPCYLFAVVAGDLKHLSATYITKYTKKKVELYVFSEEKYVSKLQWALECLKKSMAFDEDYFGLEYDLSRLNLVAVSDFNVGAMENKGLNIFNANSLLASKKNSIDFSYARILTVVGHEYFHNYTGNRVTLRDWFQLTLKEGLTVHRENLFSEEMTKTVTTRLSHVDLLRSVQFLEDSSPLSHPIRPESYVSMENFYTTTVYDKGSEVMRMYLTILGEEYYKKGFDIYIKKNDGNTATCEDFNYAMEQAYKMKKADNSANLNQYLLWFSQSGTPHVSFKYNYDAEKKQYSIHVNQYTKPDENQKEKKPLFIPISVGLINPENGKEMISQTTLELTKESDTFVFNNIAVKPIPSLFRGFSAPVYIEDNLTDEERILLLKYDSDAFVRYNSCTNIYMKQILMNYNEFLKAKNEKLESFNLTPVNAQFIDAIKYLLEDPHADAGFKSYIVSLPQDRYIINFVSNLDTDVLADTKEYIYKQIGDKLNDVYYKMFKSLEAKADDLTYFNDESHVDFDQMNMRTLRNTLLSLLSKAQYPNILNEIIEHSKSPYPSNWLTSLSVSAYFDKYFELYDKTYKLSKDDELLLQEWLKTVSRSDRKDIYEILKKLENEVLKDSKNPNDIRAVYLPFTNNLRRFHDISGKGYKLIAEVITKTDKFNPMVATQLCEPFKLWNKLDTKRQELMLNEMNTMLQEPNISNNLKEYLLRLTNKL

Streptococcus = test: Group A Streptococcus viability loss, dose response, counter-screen for streptokinase expression inhibitor project, luminescence, BacTiterGlo (AID 1915); format: functional, organism-based;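 note: potency for reduction of bacterial viability or growth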
[2] = biological target: T2, RNA-binding protein pos-1 (Caenorhabditis elegans, UniProt G5EF15); test: inhibitors of POS-1/mex-3 RNA binding, dose response, biochemical, fluorescence polarization (AID 1964);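 note: purified POS-1 fused to maltose binding protein made in E. coli; potency of compounds blocking POS-1 binding to fluorescent RNA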
T2 sequence (G5EF15 whole entry): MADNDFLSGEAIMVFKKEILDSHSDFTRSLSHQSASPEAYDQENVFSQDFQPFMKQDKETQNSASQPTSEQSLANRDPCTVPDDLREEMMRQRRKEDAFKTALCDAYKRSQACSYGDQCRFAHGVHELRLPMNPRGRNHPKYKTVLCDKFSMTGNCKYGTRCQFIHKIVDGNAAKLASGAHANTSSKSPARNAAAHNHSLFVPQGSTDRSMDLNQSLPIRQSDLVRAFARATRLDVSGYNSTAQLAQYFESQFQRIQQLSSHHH

[3] = biological target: T3, Zinc finger protein mex-5 (Caenorhabditis elegans, UniProt Q9XUB2); test: MEX-5/TCR-2 RNA interaction inhibitors, dose response, biochemical, C. elegans, fluorescence polarization (AID 1960)
T3 sequence (Q9XUB2 whole entry): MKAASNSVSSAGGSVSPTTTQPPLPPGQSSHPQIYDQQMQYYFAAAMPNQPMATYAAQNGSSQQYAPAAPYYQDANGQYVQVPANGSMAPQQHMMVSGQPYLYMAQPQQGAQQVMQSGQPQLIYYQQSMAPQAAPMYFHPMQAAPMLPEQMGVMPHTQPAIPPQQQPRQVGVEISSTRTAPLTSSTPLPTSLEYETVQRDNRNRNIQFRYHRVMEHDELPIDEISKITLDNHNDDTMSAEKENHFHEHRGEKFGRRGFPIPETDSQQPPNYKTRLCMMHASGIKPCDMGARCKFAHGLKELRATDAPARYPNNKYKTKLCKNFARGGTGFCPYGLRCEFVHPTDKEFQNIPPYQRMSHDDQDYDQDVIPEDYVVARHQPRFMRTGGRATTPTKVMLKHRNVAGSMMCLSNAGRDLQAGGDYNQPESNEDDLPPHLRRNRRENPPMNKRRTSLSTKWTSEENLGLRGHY

[4] = HIV-1 Env-mediated cell fusion inhibitors, dose response, CCR5-tropic Env (AID 2279); format: functional
[5] = system: Streptococcus sp. 'group A'; test: growth inhibition of control SK(-) GAS strain, dose response, counter-screen for streptokinase expression inhibitor project, luminescence, kanamycin, BacTiterGlo, confirmation (AID 1900); format: functional, organism-based
[6] = biological target: T4, Long-chain-fatty-acid--AMP ligase FadD28 (Mycobacterium tuberculosis, UniProt P9WQ59); test: Fluorescence polarization aasay to screen for inhibitors that compete for the binding of FadD28 to a bisubstrate Measured in Biochemical System Using Plate Reader - 2147-01_Inhibitor_Dose_CherryPick_Activity.; format: functional, Mycobacterium tuberculosis H37Rv
T4 sequence (P9WQ59 whole entry): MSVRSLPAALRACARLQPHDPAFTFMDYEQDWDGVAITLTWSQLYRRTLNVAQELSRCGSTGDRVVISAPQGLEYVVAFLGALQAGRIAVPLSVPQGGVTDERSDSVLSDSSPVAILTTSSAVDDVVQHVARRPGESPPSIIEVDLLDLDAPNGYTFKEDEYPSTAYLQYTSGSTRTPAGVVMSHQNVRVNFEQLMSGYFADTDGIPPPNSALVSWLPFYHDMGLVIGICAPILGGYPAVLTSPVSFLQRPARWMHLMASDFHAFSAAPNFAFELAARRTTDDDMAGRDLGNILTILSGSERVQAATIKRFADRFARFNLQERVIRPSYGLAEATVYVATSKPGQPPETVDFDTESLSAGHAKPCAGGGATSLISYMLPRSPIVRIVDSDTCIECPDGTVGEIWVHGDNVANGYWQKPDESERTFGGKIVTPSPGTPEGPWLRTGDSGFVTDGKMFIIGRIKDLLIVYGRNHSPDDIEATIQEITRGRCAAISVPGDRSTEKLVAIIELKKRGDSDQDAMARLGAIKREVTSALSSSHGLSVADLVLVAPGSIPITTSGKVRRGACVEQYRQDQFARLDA

[7] = HEp-2 cell cytotoxicity, dose response, cytotoxicity control for RSV inhibitor project, HTS (AID 2410); format: functional; conditions: human respiratory syncytial virus
NS3 = NS3 (Hepatitis C virus, UniProt A3EZJ3); test: PubChem AID 2173; parameters: species or system Hepacivirus hominis
NS3, sequence (A3EZJ3 whole entry): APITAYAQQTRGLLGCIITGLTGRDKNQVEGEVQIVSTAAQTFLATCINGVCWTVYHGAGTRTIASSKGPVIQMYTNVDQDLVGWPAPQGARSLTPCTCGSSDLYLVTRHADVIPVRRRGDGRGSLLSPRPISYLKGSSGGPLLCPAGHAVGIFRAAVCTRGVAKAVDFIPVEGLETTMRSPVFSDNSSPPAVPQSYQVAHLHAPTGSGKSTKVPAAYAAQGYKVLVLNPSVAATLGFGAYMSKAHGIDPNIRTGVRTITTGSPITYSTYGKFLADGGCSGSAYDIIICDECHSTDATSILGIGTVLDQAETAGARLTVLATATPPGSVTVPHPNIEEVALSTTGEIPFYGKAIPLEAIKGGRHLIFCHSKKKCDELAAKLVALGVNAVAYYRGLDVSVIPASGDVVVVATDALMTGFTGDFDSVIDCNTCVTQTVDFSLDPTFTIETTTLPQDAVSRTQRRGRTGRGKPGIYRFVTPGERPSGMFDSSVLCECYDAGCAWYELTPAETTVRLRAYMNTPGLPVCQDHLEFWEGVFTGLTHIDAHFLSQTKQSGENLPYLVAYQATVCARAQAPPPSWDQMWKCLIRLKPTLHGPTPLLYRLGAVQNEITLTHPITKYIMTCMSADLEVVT

Induced myeloid leukemia cell differentiation protein Mcl-1, sequence (Q07820 whole entry): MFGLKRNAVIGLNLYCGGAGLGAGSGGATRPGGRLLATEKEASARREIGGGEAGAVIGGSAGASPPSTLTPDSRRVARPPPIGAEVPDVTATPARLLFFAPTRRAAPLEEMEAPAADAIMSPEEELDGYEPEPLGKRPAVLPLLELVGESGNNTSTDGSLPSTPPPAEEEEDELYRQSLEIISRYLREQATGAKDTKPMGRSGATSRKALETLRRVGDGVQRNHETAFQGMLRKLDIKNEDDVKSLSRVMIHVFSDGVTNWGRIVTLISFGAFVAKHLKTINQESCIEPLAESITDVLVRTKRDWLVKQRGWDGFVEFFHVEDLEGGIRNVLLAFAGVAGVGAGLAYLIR

Structure (SMILES): O=c1cc(-c2ccccc2Cl)oc2c(NS(=O)(=O)c3cc(Cl)cc(Cl)c3O)ccc(O)c12
- IC50 [1]: 3.4 µM (active)
- IC50 (Aminopeptidase N): 51.6 µM (active)
- EC50 (Streptococcus): 2.26 µM (active)
- EC50 [2]: > 300 µM (not active)
- EC50 [3]: 4.54 µM (inconclusive)
- IC50 [4]: 4.77 µM (active)
- EC50 [5]: 1 µM (active)

Structure (SMILES): O=C(O)c1cc(-c2ccc(/C=C3\NC(=O)N(c4ccc(Cl)cc4)C3=O)o2)ccc1Cl
- IC50 (cells): 23.2 µM (active)
- EC50 [2]: 39.7 µM (active)
- AC50 [6]: 19.5 µM (active)

Structure (SMILES): COc1cccc(C(=O)Nc2cc(NC(=O)c3cccs3)ccc2C)c1OC
- IC50 (cells): 48.3 µM (active)
- CC50 [7]: 38.2 µM (active)

Structure (SMILES): COC(=O)c1sc(N2C(=O)C(O)=C(C(=O)c3ccc(C)o3)C2c2cc(OC)ccc2OC)nc1C (stereo not drawn)
- IC50 (NS3): 5.66 µM (active)
